Laboratory results from PMC12717121, “ABA-independent PP2C-binding in PYLs traces to bacterial origins and persists in land plants” (Nature Communications, 2025).

Assays:
PP2CA (AtPP2CA) = molecular target: T1, PP2CA (AtPP2CA) (Arabidopsis thaliana, UniProt P49598); assay: phosphatase assay, A405; type: biochemical; conditions: 50 mM pNPP, 0.5 μM PP2C, 33 mM Tris-OAc pH 7.9, 25 mM Mg(OAc)2
T1 construct: GST-PP2CA (pGEX-6P-1), E. coli BL21(DE3)
T1 sequence (P49598 1-399): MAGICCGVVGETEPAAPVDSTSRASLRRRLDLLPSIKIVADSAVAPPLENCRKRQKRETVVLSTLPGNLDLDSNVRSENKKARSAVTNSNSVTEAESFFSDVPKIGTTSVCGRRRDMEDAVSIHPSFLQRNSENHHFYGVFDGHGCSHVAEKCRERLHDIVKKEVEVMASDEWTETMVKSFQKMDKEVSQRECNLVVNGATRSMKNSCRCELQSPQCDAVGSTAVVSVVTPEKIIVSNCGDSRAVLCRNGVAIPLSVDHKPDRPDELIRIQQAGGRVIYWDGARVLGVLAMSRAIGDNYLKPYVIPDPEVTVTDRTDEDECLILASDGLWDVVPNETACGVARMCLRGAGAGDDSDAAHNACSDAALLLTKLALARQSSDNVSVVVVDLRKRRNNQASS

ABI1 (AtABI1) = molecular target: T2, ABI1 (AtABI1) (Arabidopsis thaliana, UniProt P49597); assay: phosphatase assay, A405; type: biochemical; conditions: 50 mM pNPP, 0.5 μM PP2C, 33 mM Tris-OAc pH 7.9, 25 mM Mg(OAc)2
T2 construct: GST-ABI1 (pGEX-6P-1), E. coli BL21(DE3)
T2 sequence (P49597 1-434): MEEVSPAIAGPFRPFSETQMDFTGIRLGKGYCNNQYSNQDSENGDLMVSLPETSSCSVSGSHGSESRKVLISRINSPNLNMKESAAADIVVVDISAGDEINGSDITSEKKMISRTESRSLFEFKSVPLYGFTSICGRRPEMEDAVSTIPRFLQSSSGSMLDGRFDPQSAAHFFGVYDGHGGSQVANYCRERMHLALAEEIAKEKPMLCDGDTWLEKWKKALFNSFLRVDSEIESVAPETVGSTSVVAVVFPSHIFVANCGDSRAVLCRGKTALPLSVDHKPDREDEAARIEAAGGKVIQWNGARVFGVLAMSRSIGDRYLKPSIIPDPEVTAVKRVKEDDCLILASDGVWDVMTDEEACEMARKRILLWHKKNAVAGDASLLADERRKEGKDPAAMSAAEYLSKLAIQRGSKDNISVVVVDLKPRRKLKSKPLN

For `O=[N+]([O-])c1ccc(OP(=O)(O)O)cc1` [pNPP], the “phosphatase assay, A405” value (PP2CA (AtPP2CA)) was “Initial reaction velocities for GST-PP2Cs were measured using the synthetic phosphatase substrate pNPP” and the “phosphatase assay, A405” value (ABI1 (AtABI1)) was “Initial reaction velocities for GST-PP2Cs were measured using the synthetic phosphatase substrate pNPP”.
